Patent US6403054B1, “Ternary ligand complexes useful as radiopharmaceuticals” (Bristol-Myers Squibb Pharma Company, priority 1997, dated 2002)

Experiment: Canine imaging and biodistribution model
Settings: for route of excretion: i.v. infusion, gamma camera images and biodistribution
Protocol: A canine imaging and biodistribution model was used to evaluate the radiopharmaceuticals of Examples 5 and 7.
Adult beagle dogs of either sex (9-13 kg) were anesthetized with pentobarbital sodium (35 mg/kg,i.v.) and ventilated with room air via an endotracheal tube (12 strokes/min, 25 ml/kg). For arterial pressure determination, the right femoral artery was cannulated with a saline-filled polyethylene catheter (PE-240) and connected to a Statham pressure transducer (P23ID; Oxnard, Calif.). Mean arterial blood pressure was determined via damping the pulsatile pressure signal. Heart rate was monitored using a cardiotachometer (Biotach, Grass Quincy, Mass.) triggered from a lead II electrocardiogram generated by limb leads. All parameters were monitored continuously on a polygraph recorder (model 7D Grass) at a paper speed of 10 mm/min or 25 mm/sec. The right femoral vein was cannulated (PE-240) for drug administration. A control blood sample was collected for hematology analysis on an MCA210 (APTT, PT), K1000 (cell number), and Chrono Log Aggregometer (collagen induced platelet aggregation). Blood samples were also collected immediately after infusion, 30, 60, and 120 minutes post infusion. Samples of blood were retained for blood clearance determination at control, immediately following infusion, 15, 30, 60, 90, and 120 minutes post infusion. Administration of test article was given no earlier than 20 minutes post surgery. The test article was administered as a 10 cc slow infusion over 5 minutes. Images were acquired by a gamma camera over 5 minutes and taken during infusion, 5, 15, 30, 60, 90, 120 minutes post infusion (Digital Dyna Camera, Picker International, Cleveland, Ohio). At the end of the protocol the animal was euthanized with an overdose of pentobarbital and a biodistribution performed. The samples collected for biodistribution (muscle, liver, kidney, bile, spleen, heart, lung thyroid, and urine) and the blood clearance samples were weighed and the amount of activity determined via a gamma well counter (LKB 1282, Wallac Inc).

[1] = at 120 min post-injection, beagle dogs

Row | Substance | route of excretion (anesthetized adult beagle dogs) | clearance from the blood (anesthetized adult beagle dogs, slow i.v. infusion over 5 minutes, blood samples up to 120 minutes post infusion) | portion of the radiopharmaceutical located in the bladder [1] | radiopharmaceutical remaining in the blood, the muscle or other organs [1] | clearance from the blood (dog, in vivo, iv)
1 | [^99mTc (HYNICamide) (tricine) (TPPTS)] [Example 7] | predominantly renal | rapid clearance | vast majority | very little remaining | –
2 | [^99mTc (HYPY) (tricine) (TFP)] [Example 5] | predominantly hepatobiliary | – | – | – | Rapid blood clearance
